Measurements as given in patent US5789434A, “Derivatives of substituted 4-biarylbutyric acid as matrix metalloprotease inhibitors” (priority 1995, dated 1998).
Structures can show the parent of a compound that is named as a salt.

How the values were obtained:
MMP-3 = molecular target: T1, MMP-3 (Homo sapiens, UniProt P08254); test: Primary Thiopeptilide MMP-3 Inhibition Assay; format: biochemical; details: for IC50: pH 6.5, 13 nM stromelysin, x (n) = average of n determinations, read-out: MMP-3 Thiopep. IC50; for inhibition at 5 µM: read-out: MMP-3 Thiopep. % inhibition
T1 construct: Truncated Prostromelysin-257 was expressed in a soluble form in E.coli; made in house; host or cells: E. coli
T1 sequence (P08254 100-274 limits assumed): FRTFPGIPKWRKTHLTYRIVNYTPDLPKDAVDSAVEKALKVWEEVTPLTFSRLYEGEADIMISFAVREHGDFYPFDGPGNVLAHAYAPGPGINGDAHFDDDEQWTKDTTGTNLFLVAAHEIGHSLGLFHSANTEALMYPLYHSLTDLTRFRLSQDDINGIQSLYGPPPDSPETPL

MMP-9 = molecular target: T2, MMP-9 (Homo sapiens, UniProt P14780); test: Thiopeptilide MMP-9 Inhibition Assay; format: biochemical; details: for IC50: pH 6.5, x (n) = average of n determinations, read-out: MMP-9: Thiopep. IC50; for inhibition at 5 µM: read-out: MMP-9: Thiopep. % inhibition
T2 construct: from tissue; host or cells: human polymorphonuclear leukocytes (PMN) from whole blood (New York Blood Center), PMA-stimulated supernatant
T2 sequence (P14780 107-707 limits assumed): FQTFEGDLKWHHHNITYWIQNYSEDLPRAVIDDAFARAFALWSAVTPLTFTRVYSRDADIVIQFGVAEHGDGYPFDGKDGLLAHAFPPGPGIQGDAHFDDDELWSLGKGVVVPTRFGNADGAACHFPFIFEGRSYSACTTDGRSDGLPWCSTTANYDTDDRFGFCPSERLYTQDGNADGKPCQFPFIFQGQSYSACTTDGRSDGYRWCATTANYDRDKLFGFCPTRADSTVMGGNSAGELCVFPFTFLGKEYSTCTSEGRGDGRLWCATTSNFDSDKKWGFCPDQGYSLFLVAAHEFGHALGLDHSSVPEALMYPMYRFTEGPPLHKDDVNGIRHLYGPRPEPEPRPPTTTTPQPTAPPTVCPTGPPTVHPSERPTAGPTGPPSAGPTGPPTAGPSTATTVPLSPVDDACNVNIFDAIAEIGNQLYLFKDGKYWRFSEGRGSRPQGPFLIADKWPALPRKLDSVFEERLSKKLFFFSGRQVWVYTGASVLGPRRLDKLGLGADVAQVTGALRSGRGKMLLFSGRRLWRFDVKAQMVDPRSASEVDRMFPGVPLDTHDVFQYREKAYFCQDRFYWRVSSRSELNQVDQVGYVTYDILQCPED

Row | Structure (SMILES) | IC50 (MMP-3) | IC50 (MMP-9) | inhibition at 5 µM (MMP-9) | inhibition at 5 µM (MMP-3)
1 | O=C(CC(CCCc1ccccc1)C(=O)O)c1ccc(-c2ccsc2)cc1 (stereo not drawn) [Example 76, Benzenepentanoic acid, α-[2-oxo-2-[4-(3-thienyl)phenyl]ethyl]-] | 1000 nM | 1800 nM |  | 
2 | O=C(CC(CCCc1ccccc1)C(=O)O)c1ccc(-c2ccc(OCCO)cc2)cc1 (stereo not drawn) [Example 54, [1,1'-Biphenyl]-4-butanoic acid, 4'-(2-hydroxyethoxy)-γ-oxo-α-(3-phenylpropyl)-] | 190 nM | 700 nM |  | 
3 | O=Cc1ccc(-c2ccc(C(=O)CC(CCCc3ccccc3)C(=O)O)cc2)cc1 (stereo not drawn) [Example 78, [1,1'-Biphenyl]-4-butanoic acid, 4'-formyl-γ-oxo-α-(3-phenylpropyl)-] | 310 nM | 1200 nM |  | 
4 | CCCCOc1ccc(-c2ccc(C(=O)CC(CCCc3ccccc3)C(=O)O)cc2)cc1 (stereo not drawn) [Example 89, [1,1'-Biphenyl]-4-butanoic acid, 4'-butoxy-γ-oxo-α-(3-phenylpropyl)-] | 111 nM | 480 nM |  | 
5 | O=C(CC(CCCc1ccccc1)C(=O)O)c1ccc(-c2ccc(Cl)s2)cc1 (stereo not drawn) [Example 68, Benzenepentanoic acid, α-[2-[4-(5-chloro-2-thienyl)phenyl]-2-oxoethyl]-] | 280 nM | 300 nM |  | 
6 | CCCCCCOc1ccc(-c2ccc(C(=O)CC(CCCc3ccccc3)C(=O)O)cc2)cc1 (stereo not drawn) [Example 88, [1,1'-Biphenyl]-4-butanoic acid, 4'-(hexyloxy)γ-oxo-α-(3-phenylpropyl)-] | 168 nM |  | 30% | 
7 | O=C(O)[C@@H]1CCC[C@H]1C(=O)c1ccc(-c2ccc(Cl)cc2)cc1 (relative stereo) [Example 289, Cyclopentanecarboxylic acid, 2-[(4'-chloro[1,1'-biphenyl]-4-yl)carbonyl]-, trans-] | 348 nM | 910 nM |  | 
8 | O=C(O)[C@@H]1[C@@H](C(=O)c2ccc(-c3ccc(Cl)cc3)cc2)CC[C@H]1Sc1ccc(F)cc1 (relative stereo) [Example 309, Cyclopentanecarboxylic acid, 2-[(4'-chloro[1,1'-biphenyl]-4-yl)carbonyl]-5-[(4-fluorophenyl)thio]-, (1α,2β-5β)-] | 73 nM | 62 nM |  | 
9 | Cc1nc(-c2ccc(C(=O)CC(CC(C)C)C(=O)O)cc2)co1 (stereo not drawn) [Example 347, Benzenebutanoic acid, 4-(2-methyl-4-oxazolyl)-α-(2-methylpropyl)-γ-oxo-] |  |  | 0% | 12%
10 | O=C(O)CCC1(C(=O)c2ccc(-c3ccc(Cl)cc3)cc2)CCCC1 [Example 340, Cyclopentanepropanoic acid, 1-[(4'-chloro[1,1'-biphenyl]-4-yl)carbonyl]-] |  |  | 21% | 14%
11 | Cc1nc(-c2ccc(C(=O)CC(CC(C)C)C(=O)O)cc2)cs1 (stereo not drawn) [Example 348, Benzenebutanoic acid, α-(2-methylpropyl)-4-(2-methyl-4-thiazolyl)γ-oxo-] |  |  | 36% | 31%
12 | O=C(CC(CCCc1ccccc1)C(=O)O)c1ccc(-c2ccc(Cl)cc2)o1 (stereo not drawn) [Example 350, 2-Furanbutanoic acid, 5-(4-chlorohenyl)-γ-oxo-α-(3-phenylpropyl)-] |  |  | 20% | 4%
13 | CNC(=O)[C@@H]1CCCN1C(=O)C(CC(=O)c1ccc(-c2ccc(Cl)cc2)cc1)CC(C)C (stereo partly drawn) [Example 346, 2-Pyrrolidinecarboxamide, 1-[2-[2-(4'-chloro[1,1'-biphenyl]-4-yl)-2-oxoethyl]-4-metyl-1-oxopentyl]-N-methyl-, (2S)-] | 6000 nM |  | 34% | 
14 | CC(C)(C)C(=O)SCC(CC(=O)c1ccc(-c2ccc(Cl)cc2)cc1)C(=O)O (single isomer, unassigned) [Example 195, [1,1'-Biphenyl]-4-butanoic acid, 4'-chloro-α-[[(2,2-dimethyl-1-oxopropyl)thio]methyl]-γ-oxo-] |  |  | 20% | 31%
15 | CC(C)(C)OC(=O)NCc1ccc(-c2ccc(C(=O)CC(CCCc3ccccc3)C(=O)O)cc2)cc1 (stereo not drawn) [Example 49, [1,1'-Biphenyl]-4-butanoic acid, 4'-[[[(1,1-dimethylethoxy)carbonyl]amino]methyl]-γ-oxo-α-(3-phenylpropyl)-] | 750 nM |  | 13% | 
16 | O=C(CC(CSc1cccc(F)c1)C(=O)O)c1ccc(-c2ccc(Cl)cc2)cc1 (stereo not drawn) [Example 243, [1,1'-Biphenyl]-4-butanoic acid, 4'-chloro-α[[(3-fluorophenyl)thio]methyl]-γ-oxo-] | 360 nM | 850 nM |  | 
17 | CCc1ccc(-c2ccc(C(=O)CC(CC(C)C)C(=O)O)nc2)cc1 (stereo not drawn) [Example 61, 2-Pyridinebutanoic acid, 5-(4-ethylphenyl)-α-(2-methylpropyl)-γ-oxo-] |  |  | 22% | 35%

More lines, now with the values ahead:

Row | IC50 (MMP-3) | IC50 (MMP-9) | inhibition at 5 µM (MMP-9) | inhibition at 5 µM (MMP-3) | Structure (SMILES)
18 | 440 nM | 280 nM |  |  | Cc1ccc(SCC(CC(=O)c2ccc(-c3ccc(Cl)cc3)cc2)C(=O)O)cc1 (stereo not drawn) [Example 211, [1,1'-Biphenyl]-4-butanoic acid, 4'-chloro-α-[[(4-methylphenyl)thio]methyl]-γ-oxo-]
19 | 2900 nM |  | 42% |  | CCN(CC)CCCC(CC(=O)c1ccc(-c2ccc(Cl)cc2)cc1)C(=O)O (stereo not drawn) [Example 265, [1,1'-Biphenyl]-4-butanoic acid, 4'-chloro-α-[3-(diethylamino)propyl]-γ-oxo-, trifluoroacetate]
20 | 550 nM | 1200 nM |  |  | COc1ccc(-c2ccc(C(=O)CC(CC(C)C)C(=O)O)cc2)cc1 (stereo not drawn) [Example 19, [1,1'-Biphenyl]-4-butanoic acid, 4'-methoxy-α-(2-methylpropyl)-γ-oxo-]
21 | 247 nM | 1200 nM |  |  | O=C(CC(CSCc1ccccc1)C(=O)O)c1ccc(-c2ccc(Cl)cc2)cc1 (stereo not drawn) [Example 203, [1,1'-Biphenyl]-4-butanoic acid, 4'-chloro-γ-oxo-α-[[(phenylmethyl)thio]methyl]-]
22 |  | 6000 nM |  | 55% | CCC(C)(CC(=O)O)CC(=O)c1ccc(-c2ccc(Cl)cc2)cc1 (stereo not drawn) [Example 335, [1,1'-Biphenyl]-4-pentanoic acid, 4'-chloro-β-ethyl-β-methyl-δ-oxo-]
23 | 380 nM |  | 60% |  | CCCCC(CC(=O)c1ccc(-c2ccc(Cl)cc2)cc1)C(=O)O (stereo not drawn) [Example 120, [1,1'-Biphenyl]-4-butanoic acid, α-butyl-4'-chloro-γ-oxo-]
24 | 2300 nM |  | 38% |  | O=C(CC(CCCc1ccccc1)C(=O)O)c1ccc(-c2ccc(F)c(Cl)c2)cc1 (stereo not drawn) [Example 74, [1,1'-Biphenyl]-4-butanoic acid, 3'-chloro-4'-fluoro-γ-oxo-α-(3-phenylpropyl)-]
25 |  |  | 19% | 11% | CC(C)CC(CC(=O)O)C(=O)c1ccc(-c2ccc(Cl)cc2)cc1 (single isomer, unassigned) [Example 5, 5-methyl-3-[oxo-(4'-chloro-4-biphenyl)methyl]hexanoic acid]
26 |  |  | 0% | 24% | C=C(CC(=O)c1ccc(-c2ccc(Cl)cc2)cc1)C(=O)O [Example 23, [1,1'-Biphenyl]-4-butanoic acid, 4'-chloro-α-methylene-γ-oxo-, reference compound]
27 | 220 nM |  | 31% |  | O=C(CC(CCCc1ccc(Cl)cc1)C(=O)O)c1ccc(-c2ccc(Cl)cc2)cc1 (stereo not drawn) [Example 185, [1,1'-Biphenyl]-4-butanoic acid, 4'-chloro-α[3-(4-chlorophenyl)propyl]-γ-oxo-]
